Assay results as given in patent US20240400572A1, “COMPOUNDS AND METHODS FOR TREATING CANCERS THAT ARE MGMT DEFICIENT REGARDLESS OF MMR STATUS” (Yale University, priority 2021, published 2024).
Entries after “also recorded” stand apart in the source; their conditions may differ. Like-named read-outs stand apart in the source and are kept apart here.

Assays:
[1] = tested on: four isogenic LN229 glioblastoma cell lines (MGMT+/−, MMR+/−); format: cell-based; conditions: for cytotoxicity and selectivity in the four isogenic cell lines (in words): LN229 MGMT+/−, MMR+/− cells; for therapeutic index: IC50 in MGMT proficient and MMR proficient cells divided by IC50 in MGMT deficient and MMR deficient cells (FIG. 8)
Description: (§1) Short-term Cell Viability Assay. Cells were seeded in 96-well plates at 1000 or 2000 cells/well and allowed to adhere at 23° C. for 60 min and then incubated overnight at 37° C. Cells were treated with indicated concentrations of compounds in triplicate for 4-6 days prior to fixation with 3.7% paraformaldehyde and nuclear staining with 1 μg/mL Hoechst 33342 dye. Cells were imaged on a Cytation 3 imaging reader (BioTek) and quantified using CellProfiler software.
Statistical analysis. Statistical analysis was performed using GraphPad Prism software. Data are presented as mean or median±SD or SEM as indicated. For in vitro short-term growth delay experiments, IC50 values were determined from the nonlinear regression equation, [inhibitor] vs normalized response with variable slope. For micronuclei assays, comparisons were made with one-way ANOVA and Sidak correction for multiple comparisons. For xenograft growth delay experiments, comparisons were made with Mann-Whitney test (for comparison of 2 groups) or Kruskal-Wallis test with FDR-adjusted p-values with Q set to 5% (for comparison of ≥3 groups). For xenograft survival analysis, Kaplan-Meier analysis was used to evaluate survival rate based on death or removal from study when body weight loss exceeded 20% of initial body weight
We synthesized the imidazotetrazine 4a (KL-50) and the triazene 4b (KL-85), as vehicles to deliver 2-fluoroethyl diazonium (4c), and a series of related agents to probe structure-activity relationships in tissue culture (FIG. Z1, D and F). The 2-fluoropropyl- and 3-fluoropropyl-triazenes (10 and 11, respectively) were prepared by diazotization of 4-aminoimdazole-5-carboxamide, followed by the addition of the respective amine. All other triazenes were prepared according to literature procedures. We evaluated the cytotoxicity of our compounds in short-term cell viability assays against four isogenic LN229 glioblastoma cell lines engineered to be proficient or deficient in MGMT and/or MMR activity, using short hairpin RNAs (shRNAs) targeting MSH2 (referred to as MGMT+/−, MMR+/− cells hereafter; FIG. ZS2A). This approach allowed us to rapidly and rigorously interrogate the relationship between MGMT and MMR status and compound activity.
The compounds 10a through 10l and TMZ were tested in the short-term cell viability assay.

[2] = tested on: LN229 MGMT+/−, MMR+/− cells; assay: Micronuclei analysis; format: cell-based, human; conditions: 20 μM, 48 h
Excerpt: Micronuclei Analysis. An automated image analysis pipeline was developed by YCMD using InCell Analyzer software to quantify micronuclei formation. Nuclei and micronuclei were segmented based on Hoechst nucleic acid dye staining channel. A perinuclear margin was applied around the nuclei to approximate the extent of the cytoplasm and identify micronuclei associated with the parent nucleus. Cells with nuclei associated with at least 1 micronucleus were considered positive.

[3] = tested on: genomic DNA of LN229 MGMT−/MMR+ cells; assay: Genomic DNA denaturing gel electrophoresis; format: cell-based, human; conditions: 200 μM, 24 h
Description: Genomic DNA Denaturing Gel Electrophoresis. Cells were trypsinized, washed with 1×PBS, and stored at −80° C. prior to processing. Genomic DNA was extracted with the DNeasy Blood & Tissue Kit (Qiagen) per kit protocol. A 0.7% agarose gel was prepared in 100 mM NaCl-2 mM EDTA (pH 8) and soaked in 40 mM NaOH-1 mM EDTA running buffer for 2 h. Genomic DNA (400 ng/well) was then loaded in 1× BlueJuice loading buffer (Invitrogen) and subjected to electrophoresis at 2 V/cm for 30 min, followed by 3 V/cm for 2 h. The gel was neutralized in 150 mM NaCl-100 mM Tris (pH 7.4) for 30 min, twice, and then stained with 1× SYBR Gold in 150 mM NaCl-100 mM Tris (pH 7.4) for 90 min. Imaging was performed on a ChemiDoc XRS+ Molecular Imager (Bio-Rad).

[4] = tested on: DLD1 MSH6-deficient cells; assay: Short-term cell viability assay with or without O^6BG; format: cell-based, human; conditions: DLD1 (MGMT+, MSH6−), with or without 10 μM O^6BG-induced MGMT depletion
Excerpt: (§2) FIGS. Z2A-Z2H. […] (FIG. Z2A) IC50 values derived from short-term viability assays in LN229 MGMT+/−, MMR+/− cells treated with TMZ (1a) derivatives. ^aMGMT TI (therapeutic index)=IC50 (MGMT+/MMR+) divided by IC50 (MGMT−/MMR+). ^bMMR RI (resistance index)=IC50 (MGMT−/MMR−) divided by IC50 (MGMT−/MMR+). (FIG. Z2B) Short-term viability assay curves for TMZ (1a), CCNU (14), KL-85 (4b), and KL-50 (4a) in LN229 MGMT+/−, MMR+/− cells. (FIG. Z2C) Clonogenic survival curves for TMZ (1a) in LN229 MGMT+/−, MMR+/− cells, with representative images of wells containing 1000 plated cells treated with 30 μM TMZ (1a). (FIG. Z2D) Clonogenic survival curves for KL-50 (4a) in LN229 MGMT+/−, MMR+/− cells, with representative images of wells containing 1000 plated cells treated with 30 μM KL-50 (4a). (FIG. Z2E) Short-term viability assay curves for TMZ (1a) in DLD1 MSH6-deficient cells pre-treated with 0.01% DMSO control (CTR) or 10 μM O^6BG (+O^6BG) for 1 h prior to TMZ (1a) addition to deplete MGMT. (FIG. Z2F) Short-term viability assay curves for KL-50 (4a) in DLD1 MSH6-deficient cells pre-treated with 0.01% DMSO control (CTR) or 10 μM O^6BG (+O^6BG) for 1 h prior to KL-50 (4a) addition. (FIG. Z2G) Short-term viability assay curves for TMZ (1a) in HCT116 MLH1−/− cells or HCT116 cells complemented with chromosome 3 carrying wildtype MLH1 (+Chr3) pre-treated with 0.01% DMSO control or 10 μM O^6BG (+O^6BG) for 1 h prior to TMZ (1a) addition. (FIG. Z2H) Short-term viability assay curves for KL-50 (4a) in HCT116 MLH1−/− cells or HCT116 cells complemented with chromosome 3 carrying wildtype MLH1 (+Chr3) pre-treated with 0.01% DMSO control or 10 μM O^6BG (+O^6BG) for 1 h prior to KL-50 (4a) addition. For (FIG. Z2B), (FIG. Z2C), (FIG. Z2D), (FIG. Z2E), (FIG. Z2F), (FIG. Z2G), and (FIG. Z2H), points, mean; error bars, SD; n≥3 technical replicates.
as §1

[5] = tested on: HCT116 MLH1−/− cells and HCT116+Chr3 cells; assay: as above; format: cell-based, human; conditions: for cytotoxicity in HCT116 MLH1−/− cells (in words): MLH1-deficient, with or without 10 μM O^6BG; for cytotoxicity in HCT116+Chr3 cells (in words): complemented with chromosome 3 containing MLH1, with or without 10 μM O^6BG
Excerpt: as §2, §1

| SMILES | cytotoxicity and selectivity in the four isogenic cell lines (in words) ([1]; listed as N-methyl KL50) | micronuclei formation (in words) [2] | crosslinked genomic DNA (in words) [3] | therapeutic index [1] | selectivity for MGMT-deficient cells ([1]; LN229 MGMT+ versus MGMT− cells) | cytotoxicity and selectivity in the four isogenic cell lines (in words) [1] | cytotoxicity and selectivity in the four isogenic cell lines (in words) ([1]; listed as 4a) | cytotoxicity in DLD1 cells (in words) [4] | cytotoxicity in HCT116 MLH1−/− cells (in words) [5] | cytotoxicity in HCT116+Chr3 cells (in words) [5] |
| --- | --- | --- | --- | --- | --- | --- | --- | --- | --- | --- |
| CNC(=O)c1ncn2c(=O)n(CCF)nnc12 [Compound I-1, 3-(2-fluoroethyl)-N-methyl-4-oxo-3H,4H-imidazo[4,3-d][1,2,3,5]tetrazine-8-carboxamide] | comparable to those for KL50 itself; also recorded: preferable toxicity for MGMT− cells compared to MGMT^+ cells, regardless of MMR status |  |  |  |  |  |  |  |  |  |
| NC(=O)c1ncn2c(=O)n(CCF)nnc12 [KL-50, 3-(2-fluoroethyl)-4-oxo-3H,4H-imidazo[4,3-d][1,2,3,5]tetrazine-8-carboxamide] |  | significant increase in micronuclei was observed at 48 h | presence of crosslinked DNA | 26.64 | ~25 fold | preferable toxicity for MGMT− cells compared to MGMT^+ cells, regardless of MMR status | mirrored that of 4b | toxic to these cells, but only after O^6BG-induced MGMT depletion | selective tumor cell killing specifically in the setting of O^6BG-induced MGMT suppression | selective tumor cell killing specifically in the setting of O^6BG-induced MGMT suppression |
| Cn1nnc2c(C(N)=O)ncn2c1=O [TMZ, temozolomide, reference compound] |  | smaller increases in G1-phase foci and micronuclei formation at 48 h in MGMT−/MMR+ cells; also recorded: did not observe foci induction or micronuclei formation in MGMT−/MMR− cells | no evidence of ICL induction | less than one |  |  |  | inactive | inactive | enhanced sensitivity to TMZ (1a), which was further potentiated by MGMT depletion |
